Measured values taken from patent US12409160B1, “Compositions and methods for treatment of peri-implantitis and periodontitis” (Cusp Biosciences, Inc., priority 2025, dated 2025).

How the values were obtained:
[1] = test system: human periodontal ligament cells (hPDLCs); assay: Cell viability (MTT) of hPDLCs; type: cell-based; details: Day 1 (24 h)
[2] = cited from earlier work
[3] = test system: hPDLF monolayers; assay: Scratch-wound closure in hPDLF monolayers; type: cell-based, human; details: over 24 h after treatment
[4] = test system: RAW 264.7 pre-osteoclasts; assay: Osteoclastogenesis: hPDLC medium on RAW 264.7 pre-osteoclasts, TRAP staining; type: cell-based
[5] = test system: hPDLF / CD14+ monocyte co-culture; assay: TRAP-positive multinucleated osteoclasts on bone slices after seven-day co-culture; type: cell-based, human
Protocol: Culture primary human periodontal-ligament fibroblasts (hPDLFs) and autologous CD14^+ monocytes in a trans-well co-culture that recapitulates the paracrine crosstalk driving osteoclastogenesis. […] At 48 h collect supernatants and lysates.
• a. […] Secondary Read-Outs: • a.

[6] = test system: human periodontal-ligament fibroblasts (hPDLFs) and CD14+ monocytes; assay: hPDLF / CD14+ monocyte trans-well co-culture, ELISA of supernatants; type: cell-based
Protocol: Culture primary human periodontal-ligament fibroblasts ([…]) and autologous CD14^+ monocytes in a trans-well co-culture that recapitulates the paracrine crosstalk driving osteoclastogenesis. After 24 h equilibration, expose triplicate wells to: (i) vehicle (0.1% DMSO); […] At 48 h collect supernatants and lysates. • a. […] Secondary Read-Outs: • a.

[7] = test system: human periodontal ligament cells (hPDLCs); assay: IL-1β and TNF-α in supernatant (ELISA) of LPS-challenged hPDLCs under CoCl2; type: cell-based; details: 2 μM simvastatin, LPS 1 μg/ml, vs LPS-Veh

Compound: CS(=O)(=O)c1ccc(Oc2cc(F)cc(C#N)c2)c2c1[C@H](O)[C@H](F)[C@@H]2F [Belzutifan, belzutifan]
- Viability (% of No-Stim) [1]: > 90%
- solubility in DMSO ([2]; DMSO, 25° C.): ≈ 77 mg mL-1
- solubility in ethanol ([2]; ethanol): sparingly soluble
- solubility in water ([2]; water across pH 1-8): practically insoluble
- scratch-wound closure kinetics [3]: retain normal closure kinetics
- reduction in osteoclast formation ([4]; at 1%): ≥ 65%
- cut of osteoclast formation ([5]; at 1 nM): > 60%
- cut of RANKL and pro-inflammatory cytokines versus vehicle ([6]; ELISA at 48 h, belzutifan 0.1, 1, 10 nM): ≥ 70%
- VEGF preserved, of VEGF seen in vehicle ([6]; VEGF-A secretion, 48 h): ≥ 80%

Compound: COC(=O)CNC(=O)C(=O)OC [DMOG]
- effect on osteoclast formation ([5]; DMOG 1 mM): increases

Compound: CCC(C)(C)C(=O)O[C@H]1C[C@@H](C)C=C2C=C[C@H](C)[C@H](CC[C@@H]3C[C@@H](O)CC(=O)O3)[C@H]21 [SIMV, simvastatin]
- TRAP+ osteoclasts (cells per well) ([4]; 2 μM simvastatin): 85 cells per well
- IL-1β (24 h), decrease (↓) [7]: ↓ 25%
- TNF-α (24 h), decrease (↓) [7]: ↓ 20%
